Test results taken from publication PMC2955773 (ACS chemical biology, 2010).

Assays:
Type in all cases: cell-based
Nox4 = molecular target: T1, Nox4 (Homo sapiens, UniProt Q9NPH5); test: HEK293-Nox4 selectivity assay
T1 sequence (Q9NPH5 1-578): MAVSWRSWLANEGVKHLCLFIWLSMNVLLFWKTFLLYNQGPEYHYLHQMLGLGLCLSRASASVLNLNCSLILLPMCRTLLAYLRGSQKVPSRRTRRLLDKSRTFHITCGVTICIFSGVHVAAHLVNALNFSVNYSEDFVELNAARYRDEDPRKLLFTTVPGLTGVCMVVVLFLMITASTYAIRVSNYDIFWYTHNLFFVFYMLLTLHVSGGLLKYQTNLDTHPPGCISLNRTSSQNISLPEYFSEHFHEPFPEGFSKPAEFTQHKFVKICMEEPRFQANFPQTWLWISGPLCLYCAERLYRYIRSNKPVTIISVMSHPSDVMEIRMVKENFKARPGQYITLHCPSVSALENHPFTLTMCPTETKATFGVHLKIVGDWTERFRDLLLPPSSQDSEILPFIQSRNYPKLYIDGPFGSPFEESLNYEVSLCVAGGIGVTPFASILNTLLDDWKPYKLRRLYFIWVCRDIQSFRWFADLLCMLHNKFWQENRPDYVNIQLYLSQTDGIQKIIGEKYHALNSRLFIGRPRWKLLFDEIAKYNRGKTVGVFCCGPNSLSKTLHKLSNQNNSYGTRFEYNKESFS
T1 sequence (P13498 2-195 partner limits assumed): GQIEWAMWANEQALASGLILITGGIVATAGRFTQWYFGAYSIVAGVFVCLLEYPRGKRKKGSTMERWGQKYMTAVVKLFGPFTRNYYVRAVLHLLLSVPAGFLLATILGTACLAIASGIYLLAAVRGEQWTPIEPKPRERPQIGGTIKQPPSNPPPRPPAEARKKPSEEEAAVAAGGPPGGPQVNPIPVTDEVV

Nox2 = molecular target: T2, Nox2 (Homo sapiens, UniProt P04839); test: HEK293-Nox2 selectivity assay
T2 sequence (P04839 2-570 limits assumed): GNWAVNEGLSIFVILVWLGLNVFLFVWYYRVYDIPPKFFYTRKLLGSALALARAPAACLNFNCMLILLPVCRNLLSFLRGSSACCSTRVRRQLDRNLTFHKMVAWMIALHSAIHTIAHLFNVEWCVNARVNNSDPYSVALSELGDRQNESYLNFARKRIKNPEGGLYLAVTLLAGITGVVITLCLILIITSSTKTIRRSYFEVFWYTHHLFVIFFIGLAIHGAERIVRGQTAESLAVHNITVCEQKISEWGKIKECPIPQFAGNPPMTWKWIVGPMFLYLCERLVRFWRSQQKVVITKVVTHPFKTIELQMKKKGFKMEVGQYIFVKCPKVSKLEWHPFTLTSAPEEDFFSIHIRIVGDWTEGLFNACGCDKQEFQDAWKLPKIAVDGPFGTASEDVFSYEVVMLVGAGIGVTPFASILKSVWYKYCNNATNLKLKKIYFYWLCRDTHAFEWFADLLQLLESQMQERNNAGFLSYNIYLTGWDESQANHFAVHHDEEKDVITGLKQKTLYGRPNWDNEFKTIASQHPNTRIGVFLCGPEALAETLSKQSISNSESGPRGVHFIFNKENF
T2 sequence (P13498 2-195 partner limits assumed): T1 sequence (P13498 2-195 partner limits assumed)

HT29 cells = test: CellTiter Glo toxicity assay; settings: 10 μM in HT29 cells
Nox3 = molecular target: T3, Nox3 (Homo sapiens, UniProt Q9HBY0); test: HEK293-Nox3 selectivity assay
T3 sequence (Q9HBY0 1-568): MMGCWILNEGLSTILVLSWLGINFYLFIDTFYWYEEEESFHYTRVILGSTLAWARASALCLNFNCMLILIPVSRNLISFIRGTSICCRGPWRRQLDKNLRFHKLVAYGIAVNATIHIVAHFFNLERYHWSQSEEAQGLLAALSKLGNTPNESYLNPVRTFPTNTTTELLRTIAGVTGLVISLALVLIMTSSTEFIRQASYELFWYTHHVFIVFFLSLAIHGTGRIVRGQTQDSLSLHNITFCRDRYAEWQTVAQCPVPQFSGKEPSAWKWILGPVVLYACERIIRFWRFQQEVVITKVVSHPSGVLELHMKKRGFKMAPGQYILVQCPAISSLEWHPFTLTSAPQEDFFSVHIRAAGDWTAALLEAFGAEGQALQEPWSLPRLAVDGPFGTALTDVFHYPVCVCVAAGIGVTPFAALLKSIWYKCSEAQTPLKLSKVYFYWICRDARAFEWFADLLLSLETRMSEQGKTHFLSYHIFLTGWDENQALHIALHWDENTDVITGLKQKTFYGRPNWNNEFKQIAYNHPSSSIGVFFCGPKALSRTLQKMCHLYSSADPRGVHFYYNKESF
T3 sequence (P13498 2-195 partner limits assumed): T1 sequence (P13498 2-195 partner limits assumed)

activity on other Nox isoforms (Nox4): only a marginal activity
activity on other Nox isoforms (Nox2): only a marginal activity
activity on other Nox isoforms (Nox3): only a marginal activity
Structure (SMILES): FC(F)(F)c1ccc2c(c1)Nc1ccccc1S2
cell death (HT29 cells): did not cause cell death
